According to ChEMBL document CHEMBL1201862, “PubChem BioAssay data set” (2004):
Activity calls are given as the source filed them.

How the values were obtained:
Cytochrome P450 2C19 = Cytochrome P450 2C19 (Homo sapiens, UniProt P33261); assay: Cytochrome panel assay with activity outcomes. Panel member name: p450-cyp2c19 Compounds with AC50 equal or less than 10 uM are considered active; type: functional; conditions: read-out: AC50
Cytochrome P450 1A2 = molecular target: T1, Cytochrome P450 1A2 (Homo sapiens, UniProt P05177);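 note: PubChem cytochrome P450 panel assay, CYP1A2 panel member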
T1 sequence (P05177 whole entry): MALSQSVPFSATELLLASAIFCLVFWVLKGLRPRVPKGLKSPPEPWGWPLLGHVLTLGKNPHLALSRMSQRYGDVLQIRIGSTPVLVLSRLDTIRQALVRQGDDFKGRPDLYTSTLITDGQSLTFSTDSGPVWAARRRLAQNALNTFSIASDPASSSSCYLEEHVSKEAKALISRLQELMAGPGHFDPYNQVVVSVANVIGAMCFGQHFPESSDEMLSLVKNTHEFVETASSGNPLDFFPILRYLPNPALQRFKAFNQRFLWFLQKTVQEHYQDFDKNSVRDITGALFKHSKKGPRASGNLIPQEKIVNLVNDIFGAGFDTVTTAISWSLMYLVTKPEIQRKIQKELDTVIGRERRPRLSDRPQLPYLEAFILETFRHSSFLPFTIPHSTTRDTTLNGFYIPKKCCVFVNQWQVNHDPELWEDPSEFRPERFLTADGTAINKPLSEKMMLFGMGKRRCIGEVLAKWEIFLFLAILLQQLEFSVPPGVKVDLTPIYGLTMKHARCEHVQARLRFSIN

Cytochrome P450 2C9 = Cytochrome P450 2C9 (Homo sapiens, UniProt P11712)
[1] = A Cell Based Secondary Assay To Explore Cytotoxicity of Compounds that Sensitize Mycobacterium Tuberculosis to Beta-Lactam Antibiotics.; type: functional
[2] = Luminescence Cell-Based Dose Retest to Confirm Inhibitors of Cancer Stem Cells. [Related pubchem assays (depositor defined):AID2717, AID2721]; type: functional; conditions: Homo sapiens
[3] = THP-1 cell cytotoxicity, dose response, cytotoxicity control for Vif-APOBEC3G degradation inhibitor project, THP-1 cells (AID 1117359); type: functional; conditions: Human immunodeficiency virus 1, THP-1
cells [4] = type: functional, cell-based
[5] = M. tuberculosis H37Rv growth inhibitors, H37Rv strain (AID 1626); type: functional
cells [6] = type: functional, cell-based; remark: listed apart in the source
[7] = inhibitors of SNCA 5'UTR-driven reporter translation, confirmation, H4 neuroglioma cells, luminescence (AID 1988); type: functional, cell-based
[8] = Luminescence Cell-Based Dose Response HTS to Identify Inhibitors of 5'UTR Stem-Loop Driven Prion Protein mRNA Translation in H4 Neuroglioblastoma Cells. [Related pubchem assays: 1827 (Project Summary), 1813 (Primary HTS)]; type: functional
[9] = luciferase reporter signal reduction – luminescence, H4-C neuroglioblastoma cells, dose response (AID 2458); type: functional, cell-based;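 note: H4 neuroglioblastoma cells stably carrying a luciferase reporter gene fusion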
cells [10] = type: functional, cell-based; remark: listed apart in the source
[11] = inhibitors of SNCA 5'UTR-driven translation, confirmation, luminescence, H4 neuroglioblastoma cells, dose confirmation (AID 2454); type: functional, cell-based;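 note: H4 neuroglioblastoma cells carrying an alpha-synuclein 5'UTR luciferase reporter; potency for inhibition of the luciferase signal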
[12] = inhibitors of firefly luciferase expression or activity, dose response, H4 neuroglioma cells, luminescence (AID 1990); type: functional, cell-based
[13] = molecular target: T2, Heat shock factor protein 1 (Mus musculus, UniProt P38532); assay: inhibition of MG132-induced HSE-luciferase signal, confirmation, cell-based, NIH3T3, luminescence, dose retest (AID 2382); type: functional;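 note: NIH3T3 fibroblasts with HSF1-driven luciferase reporter stressed by proteasome inhibitor MG132; luminescence from HSF1-driven luciferase expression after 8 hours of MG132 stress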
T2 sequence (P38532 whole entry): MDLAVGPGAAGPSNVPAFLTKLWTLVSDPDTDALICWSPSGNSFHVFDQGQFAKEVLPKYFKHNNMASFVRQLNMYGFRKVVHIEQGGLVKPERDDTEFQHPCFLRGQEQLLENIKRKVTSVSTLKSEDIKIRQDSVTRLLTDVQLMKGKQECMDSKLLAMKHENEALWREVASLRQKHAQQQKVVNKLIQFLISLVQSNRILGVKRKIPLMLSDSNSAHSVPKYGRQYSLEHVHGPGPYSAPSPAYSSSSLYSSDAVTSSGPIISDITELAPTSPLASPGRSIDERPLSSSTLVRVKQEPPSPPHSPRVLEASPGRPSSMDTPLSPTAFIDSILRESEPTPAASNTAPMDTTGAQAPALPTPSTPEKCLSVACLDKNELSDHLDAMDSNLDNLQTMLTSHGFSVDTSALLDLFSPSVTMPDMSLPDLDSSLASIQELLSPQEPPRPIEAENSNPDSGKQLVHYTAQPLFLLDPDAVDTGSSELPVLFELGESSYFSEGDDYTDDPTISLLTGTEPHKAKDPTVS

[14] = cytotoxicity in HEK-293T cells, dose response, cytotoxicity control for TCR NF-kB inhibitor project, luminescence, T-cell screen hits (AID 489026); type: functional, cell-based;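 note: cells exposed to compound about 14 hours before the viability readout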
[15] = molecular target: Voltage-gated inwardly rectifying potassium channel KCNH2 (Homo sapiens, UniProt Q12809); assay: hERG protection from proarrhythmic block, potency, dose response, cell-based, thallium flux (AID 2121); type: ADME
Genome polyprotein = Genome polyprotein (Hepatitis C virus, UniProt Q2Q167); assay: HCV core protein dimerization inhibitors, dose response, biochemical, TR-FRET (AID 2159); parameters: species or system Hepacivirus hominis;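 note: blocks dimerization of HCV core protein measured by TR-FRET between tagged core106 pairs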
[16] = inhibitors of Vif binding to APOBEC3G peptide, primary screen, biochemical, TR-FRET, GST-Vif 1-94, biotin-A3G peptide, dose response retest (AID 1117319); type: functional;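 note: TR-FRET signal of purified GST-Vif binding a biotinylated A3G peptide; inhibitors lower the FRET signal by blocking Vif and A3G binding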

Sequence of Genome polyprotein (Q2Q167 whole entry): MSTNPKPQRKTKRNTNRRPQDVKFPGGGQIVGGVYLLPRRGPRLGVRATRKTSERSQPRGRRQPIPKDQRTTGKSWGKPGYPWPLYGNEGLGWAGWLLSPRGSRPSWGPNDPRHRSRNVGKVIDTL
Sequence of Cytochrome P450 2C9 (P11712 whole entry): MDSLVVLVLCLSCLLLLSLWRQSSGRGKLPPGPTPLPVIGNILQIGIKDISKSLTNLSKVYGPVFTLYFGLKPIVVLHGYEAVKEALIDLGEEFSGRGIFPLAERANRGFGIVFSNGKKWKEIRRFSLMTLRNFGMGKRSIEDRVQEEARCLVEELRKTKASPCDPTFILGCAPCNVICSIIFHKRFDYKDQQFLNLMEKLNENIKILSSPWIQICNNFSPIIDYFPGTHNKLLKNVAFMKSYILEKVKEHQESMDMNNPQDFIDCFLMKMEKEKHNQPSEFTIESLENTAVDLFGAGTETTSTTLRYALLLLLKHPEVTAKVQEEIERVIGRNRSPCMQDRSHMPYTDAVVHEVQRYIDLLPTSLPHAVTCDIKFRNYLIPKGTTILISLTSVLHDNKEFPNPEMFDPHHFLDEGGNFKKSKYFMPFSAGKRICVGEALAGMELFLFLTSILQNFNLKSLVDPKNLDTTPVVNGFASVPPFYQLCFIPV
Sequence of Cytochrome P450 2C19 (P33261 whole entry): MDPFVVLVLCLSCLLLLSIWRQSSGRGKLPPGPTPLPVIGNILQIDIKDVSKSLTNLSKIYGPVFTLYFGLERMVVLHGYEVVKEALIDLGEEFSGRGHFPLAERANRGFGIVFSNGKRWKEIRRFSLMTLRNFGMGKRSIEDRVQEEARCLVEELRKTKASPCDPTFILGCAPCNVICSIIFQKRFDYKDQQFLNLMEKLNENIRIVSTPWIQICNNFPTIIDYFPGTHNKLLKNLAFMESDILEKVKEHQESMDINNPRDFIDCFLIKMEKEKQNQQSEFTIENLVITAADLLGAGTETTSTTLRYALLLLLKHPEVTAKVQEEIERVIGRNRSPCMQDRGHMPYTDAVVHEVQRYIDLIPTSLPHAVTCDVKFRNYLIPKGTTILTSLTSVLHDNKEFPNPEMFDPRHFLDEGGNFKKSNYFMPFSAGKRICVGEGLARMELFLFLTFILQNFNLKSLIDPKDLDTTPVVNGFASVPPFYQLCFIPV
Sequence of Voltage-gated inwardly rectifying potassium channel KCNH2 (Q12809 whole entry): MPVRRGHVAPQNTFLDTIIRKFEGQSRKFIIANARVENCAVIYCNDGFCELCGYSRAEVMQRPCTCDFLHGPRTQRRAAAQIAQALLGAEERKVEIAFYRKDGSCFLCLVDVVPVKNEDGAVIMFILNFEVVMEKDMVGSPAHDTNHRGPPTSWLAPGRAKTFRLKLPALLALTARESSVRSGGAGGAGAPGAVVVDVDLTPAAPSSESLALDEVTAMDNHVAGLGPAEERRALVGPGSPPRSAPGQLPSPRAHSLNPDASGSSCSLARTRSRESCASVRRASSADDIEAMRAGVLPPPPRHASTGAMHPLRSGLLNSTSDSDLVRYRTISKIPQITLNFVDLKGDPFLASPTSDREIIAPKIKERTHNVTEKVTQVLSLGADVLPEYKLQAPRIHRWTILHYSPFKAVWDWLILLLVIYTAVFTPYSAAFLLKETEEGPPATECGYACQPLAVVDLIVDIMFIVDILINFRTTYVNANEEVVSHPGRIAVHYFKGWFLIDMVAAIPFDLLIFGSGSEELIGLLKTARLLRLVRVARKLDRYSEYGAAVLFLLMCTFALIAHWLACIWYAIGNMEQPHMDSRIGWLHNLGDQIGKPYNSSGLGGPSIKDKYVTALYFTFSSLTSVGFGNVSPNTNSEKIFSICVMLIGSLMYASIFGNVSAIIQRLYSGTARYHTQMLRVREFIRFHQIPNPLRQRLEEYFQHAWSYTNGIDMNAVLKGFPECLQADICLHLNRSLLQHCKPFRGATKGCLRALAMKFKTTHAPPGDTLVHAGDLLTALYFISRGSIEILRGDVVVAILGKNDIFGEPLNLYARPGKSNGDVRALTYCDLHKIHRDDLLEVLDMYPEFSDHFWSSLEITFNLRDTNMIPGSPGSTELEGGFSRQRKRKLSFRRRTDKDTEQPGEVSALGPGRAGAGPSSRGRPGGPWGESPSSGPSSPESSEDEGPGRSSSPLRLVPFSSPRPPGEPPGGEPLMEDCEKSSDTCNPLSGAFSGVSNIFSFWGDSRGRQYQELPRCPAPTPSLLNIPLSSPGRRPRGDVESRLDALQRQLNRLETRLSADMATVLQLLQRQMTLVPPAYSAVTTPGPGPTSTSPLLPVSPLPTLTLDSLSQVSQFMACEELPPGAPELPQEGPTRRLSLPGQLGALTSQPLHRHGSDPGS

Structure (SMILES): CC(C)(C)c1ccc(OCC(=O)N/N=C/c2cc(Br)ccc2OC(=O)c2ccco2)cc1
- AC50 (Cytochrome P450 2C19): 1.26 µM (inconclusive)
- AC50 (Cytochrome P450 1A2): 5.01 µM (inconclusive)
- AC50 (Cytochrome P450 2C9): inconclusive
- CC50 [1]: 15 µM (active)
- AC50 [2]: 2.29 µM (active)

Structure (SMILES): Cc1cccc(OCc2n[nH]c(-c3ccccn3)n2)c1
- CC50 [1]: 28 µM (active)

Structure (SMILES): CCOC(=O)C1CCN(C(=O)c2ccc3snnc3c2)CC1
- CC50 [3]: > 40 µM (active)

Structure (SMILES): CCOc1ccc(/C=C/C(=O)c2ccccc2)cc1OC
- EC50 (cells [4]): 10.2 µM (active)
- IC50 [5]: > 100 µM (active)
- EC50 (cells [6]): > 350 µM (not active)

Structure (SMILES): Cc1nn(-c2ccccc2Cl)c(Cl)c1/C=N/Nc1nc2ccccc2s1
- EC50 [7]: < 0.1 µM (active)
- EC50 [8]: < 0.1 µM (active)
- EC50 [9]: 0.086 µM (active)
- EC50 (cells [10]): 0.036 µM (active)
- EC50 [11]: 0.1 µM (active)
- EC50 [12]: < 0.1 µM (active)
- EC50 [13]: < 0.16 µM (active)
- IC50 [14]: > 80 µM (inactive)

Structure (SMILES): COC(=O)c1c(NS(=O)(=O)c2ccc3ccccc3c2)sc2c1CCCC2
- EC50 [15]: 7.18 µM (active)

Structure (SMILES): CCCCn1c(SCC(=O)Nc2cc(C)on2)nc2ccccc2c1=O
- IC50 (Genome polyprotein): > 49.8 µM (not active)

Structure (SMILES): N#Cc1ccccc1NC(=O)CNc1ccc(Cl)c(C(F)(F)F)c1
- IC50 [16]: > 100 µM (active)
